Measured values from US20230329282A1, “Application of 1-Deoxynojirimycin in Feed for Improving Nutritional Value and Sensory Effect of Rabbit Meat Products” (priority 2023, published 2023).
Marks after values point to notes of the source that are not given here.

How the values were obtained:
[1] = tested on: New Zealand white rabbits; conditions: cited from earlier work
[2] = tested on: New Zealand white rabbits; assay: Fatty acid composition of rabbit meat by GC/MS; format: in vivo; conditions: 28 d
Excerpt: The single-factor completely randomized test design is adopted. 36 45-day-old healthy New Zealand white rabbits (male) with the average weight of (1.05±0.04) kg are selected and randomly divided into 3 groups, and each group has 12 replicates with 1 rabbit per replicate. A control group is fed with a basal diet, an L-DNJ group is fed with the basal diet+0.14 g/kg DNJ, and an H-DNJ group is fed with the basal diet+0.28 g/kg DNJ. The diet is uniformly mixed to be prepared into cylindrical particles with the diameter of 6 mm and the length of 1 cm. The preliminary trial period is 14 d, and the trial period is 28 d. 10 g of meat sample is crushed, total fat is extracted after freeze-drying and converted to fatty acid methyl ester using a mixture of boron trifluoride, hexane and methanol (35:20:45 v/v), and then the fatty acid composition and content are measured with a gas chromatograph-mass spectrometer GC/MS (Model 7890-5975, Agilent Technologies, Inc.) with a 60 m×0.25 mm×0.25 μm capillary column. Gas chromatographic conditions are set as follows: the injector temperature is 220° C., and the detector temperature is 275° C.; and the initial column chamber temperature is 140° C. for 5 min, then increased to 240° C. at a rate of 4° C./min and maintained at 240° C. for 15 min. Finally, the fatty acid is measured with a […]. The ionization energy is 70 eV, the ion source temperature is 200° C., and the scanning range is 50-500 m/z. The retention time of each peak in the chromatogram is compared with that of a mixed standard of 37 fatty acid methyl esters (B25881, Shanghai Yuanye Bio-technology Co., Ltd.) to determine the properties of each peak. Three measurements are made for each sample, and the results are averaged.

[3] = tested on: New Zealand white rabbits; assay: Apparent digestibility of nutrients, total collection method; format: in vivo; conditions: feces collected 3 d from day 14
Excerpt: The single-factor completely randomized test design is adopted. 36 45-day-old healthy New Zealand white rabbits (male) with the average weight of (1.05±0.04) kg are selected and randomly divided into 3 groups, and each group has 12 replicates with 1 rabbit per replicate. A control group is fed with a basal diet, an L-DNJ group is fed with the basal diet+0.14 g/kg DNJ, and an H-DNJ group is fed with the basal diet+0.28 g/kg DNJ. The diet is uniformly mixed to be prepared into cylindrical particles with the diameter of 6 mm and the length of 1 cm. The preliminary trial period is 14 d, and the trial period is 28 d.
On the 14th day of the test, 8 experimental rabbits with similar weight are randomly selected from each group and transferred to metabolism cages for digestion and metabolism tests. The digestion and metabolism tests are conducted by the total collection method. All fecal samples of the experimental rabbits are collected for 3 consecutive days, and the contents of nutrients in the diet and fecal samples are measured according to the method in the book written by Zhang Liying. The calculation formula is: apparent digestibility of a nutrient (%)=(content of the nutrient in diet−content of the nutrient in feces)/content of the nutrient in diet×100.

[4] = Zhong Jingbo et al. 2021, higher additive amount
[5] = high-concentration mulberry leaf DNJ (0.4 g/kg and 2 g/kg), Zhong Jingbo et al., Xie Hui et al.
[6] = H-DNJ: basal diet+0.28 g/kg DNJ
[7] = L-DNJ: basal diet+0.14 g/kg DNJ

Structure (SMILES): OC[C@H]1NC[C@H](O)[C@@H](O)[C@@H]1O [DNJ, 1-deoxynojirimycin]
- brightness L* of rabbit meat [1, 4]: increase
- redness α* of rabbit meat [1, 4]: no effect
- activity of the duodenal amylase [1, 5]: decrease
- digestibility of dry matter and ether extract in diet [1, 5]: decrease
- weight gain of animals [1, 5]: slow weight gain
- MUFA C16:1n7c in rabbit meat [2, 6]: 2.06%
- MUFA C16:1n9c in rabbit meat [2, 6]: 0.42%
- MUFA C17:1n7c in rabbit meat [2, 6]: 0.21%
- MUFA C18:1n9c in rabbit meat [2, 6]: 23.01ª %
- MUFA C18:1n9t in rabbit meat [2, 6]: 2.86ª %
- MUFA C20:1n9t in rabbit meat [2, 6]: 0.24^a %
- Monounsaturated fatty acid (MUFA) total [2, 6]: 27.13%
- PUFA C16:3n4c in rabbit meat [2, 6]: 0.19ª %
- PUFA C18:2n6c (linoleic acid) in rabbit meat [2, 6]: 31.77ª %
- PUFA C20:2n6c in rabbit meat [2, 6]: 0.57^ab %
- PUFA C20:3n6c in rabbit meat [2, 6]: 0.43%
- PUFA C20:4n6c (arachidonic acid) in rabbit meat [2, 6]: 2.67ª %
- PUFA C22:4n6c in rabbit meat [2, 6]: 0.31%
- PUFA C22:5n6c (DPA) in rabbit meat [2, 6]: 0.13%
- Polyunsaturated fatty acid (PUFA) total [2, 6]: 36.07ª %
- SFA 9Methyl C14:0 in rabbit meat [2, 6]: 0.07%
- SFA 12Methyl C13:0 in rabbit meat [2, 6]: 0.14^b %
- SFA 13Methyl C14:0 in rabbit meat [2, 6]: 0.13ª %
- SFA 14Methyl C15:0 in rabbit meat [2, 6]: 0.26%
- SFA 14methyl C16:0 in rabbit meat [2, 6]: 0.10%
- SFA C10:0 in rabbit meat [2, 6]: 0.25%
- SFA C12:0 in rabbit meat [2, 6]: 0.92^b %
- SFA C14:0 in rabbit meat [2, 6]: 2.14%
- SFA C15:0 in rabbit meat [2, 6]: 0.53%
- SFA C16:0 in rabbit meat [2, 6]: 26.52^b %
- SFA C17:0 in rabbit meat [2, 6]: 0.52ª %
- SFA C18:0 in rabbit meat [2, 6]: 5.11^b %
- SFA C20:0 in rabbit meat [2, 6]: 0.11%
- Saturated fatty acid (SFA) total [2, 6]: 36.75^b %
- Unsaturated fatty acid (UFA) total [2, 6]: 63.20ª %
- MUFA C16:1n7c in rabbit meat [2, 7]: 1.89%
- MUFA C16:1n9c in rabbit meat [2, 7]: 0.51%
- MUFA C17:1n7c in rabbit meat [2, 7]: 0.22%
- MUFA C18:1n9c in rabbit meat [2, 7]: 20.60^b %
- MUFA C18:1n9t in rabbit meat [2, 7]: 1.08^b %
- MUFA C20:1n9t in rabbit meat [2, 7]: 0.16^b %
- Monounsaturated fatty acid (MUFA) total [2, 7]: 24.45%
- PUFA C16:3n4c in rabbit meat [2, 7]: 0.13^b %
- PUFA C18:2n6c (linoleic acid) in rabbit meat [2, 7]: 28.40^b %
- PUFA C20:2n6c in rabbit meat [2, 7]: 0.44^b %
- PUFA C20:3n6c in rabbit meat [2, 7]: 0.15%
- PUFA C20:4n6c (arachidonic acid) in rabbit meat [2, 7]: 1.61^b %
- PUFA C22:4n6c in rabbit meat [2, 7]: 0.39%
- Polyunsaturated fatty acid (PUFA) total [2, 7]: 31.12^b %
- SFA 9Methyl C14:0 in rabbit meat [2, 7]: 0.06%
- SFA 12Methyl C13:0 in rabbit meat [2, 7]: 0.30^a %
- SFA 13Methyl C14:0 in rabbit meat [2, 7]: 0.12ª %
- SFA 14Methyl C15:0 in rabbit meat [2, 7]: 0.27%
- SFA 14methyl C16:0 in rabbit meat [2, 7]: 0.11%
- SFA C10:0 in rabbit meat [2, 7]: 0.20%
- SFA C12:0 in rabbit meat [2, 7]: 1.71ª %
- SFA C14:0 in rabbit meat [2, 7]: 2.16%
- SFA C15:0 in rabbit meat [2, 7]: 0.52%
- SFA C16:0 in rabbit meat [2, 7]: 30.16ª %
- SFA C17:0 in rabbit meat [2, 7]: 0.46^b %
- SFA C18:0 in rabbit meat [2, 7]: 8.22ª %
- SFA C20:0 in rabbit meat [2, 7]: 0.11%
- Saturated fatty acid (SFA) total [2, 7]: 44.48ª %
- Unsaturated fatty acid (UFA) total [2, 7]: 55.57^b %
- Apparent digestibility of Acid detergent fiber (ADF) [3, 6]: 14.88%
- Apparent digestibility of Crude ash [3, 6]: 42.23%
- Apparent digestibility of Crude fiber (CF) [3, 6]: 14.56%
- Apparent digestibility of Crude protein (CP) [3, 6]: 76.25ª %
- Apparent digestibility of Dry matter (DM) [3, 6]: 60.79^b %
- Apparent digestibility of Ether extract (EE) [3, 6]: 78.35^b %
- Apparent digestibility of Neutral detergent fiber [3, 6]: 20.68%
- Apparent digestibility of Acid detergent fiber (ADF) [3, 7]: 12.34%
- Apparent digestibility of Crude ash [3, 7]: 43.44%
- Apparent digestibility of Crude fiber (CF) [3, 7]: 13.54%
- Apparent digestibility of Crude protein (CP) [3, 7]: 75.17^ab %
- Apparent digestibility of Dry matter (DM) [3, 7]: 61.35^ab %
- Apparent digestibility of Ether extract (EE) [3, 7]: 79.84^ab %
- Apparent digestibility of Neutral detergent fiber [3, 7]: 21.02%
